Results on three compounds are retold here after US20130344183A1, “NOVEL COMPOUND ISOLATED FROM […] ROXB AND USE THEREOF AS ANTIVIRAL AGENT” (priority 2011, published 2013).

Some results are limits rather than exact numbers.

The subject of this test is A/Vietnam/1194/04(H5N1)-NIBRG-14 highly pathogenic avian influenza virus. The class given is cell-based.

In turn, `C=C1C(=O)O[C@@H]2[C@@H]1[C@H](OC(=O)/C(C)=C\C)[C@@]1(O)O[C@H](C[C@@H]1C)C[C@@](C)(O)[C@H]2OC(=O)C(C)C` [Compound I, 2α,5-epoxy-5,10-dihydroxy-6α-angeloyloxy-9β-isobutyloxy-germacran-8α,12-olide] returned a CPE inhibitory concentration of over 10 µg/mL and a log100TCID50/ of 0.
On the same counts, the results for `C=C1C(=O)O[C@@H]2[C@@H]1[C@H](OC(=O)/C(C)=C\C)[C@@]1(O)O[C@H](C[C@@H]1C)C[C@@](C)(O)[C@H]2OC(=O)CC(C)C` [Compound III, 2α,5-epoxy-5,10-dihydroxy-6α-angeloyloxy-9β-(3-methyl-butanoyloxy)-gemacran-8α,12-olide] are over 10 µg/mL and 0.
In the case of `C=C1C(=O)OC2CC(C)(O)C3CCC(C)(O)C3CC12` (stereo not drawn) [Compound IV, 4β,10α-dihydroxy-guaia-8α,12-olide], the Activity entry is reported as “∘ (key: ∘: antiviral activity defined as a decrease of 4 log units)”, the log100TCID50/ is given as 5 and the “viral titer lower than that of the control group” value stood at 4 log.
